Measurements from patent US9765061B2, “Trail enhancers for the selective killing of cancer cells” (The Scripps Research Institute, priority 2013, dated 2017).

Assays:
[1] = tested on: primary human hepatocytes; assay: Viability and apoptosis of primary human hepatocytes from normal donors; assay type: cell-based; details: hepatocytes from normal donors
Description: FIG. 8: Safety and pro-apoptotic. activity of (C12). Cells were incubated with TRAIL, (C12), […] (Bor) or a combination of TRAIL and (C12) or Bor as indicated, and cell viability (top panels) or the cleavage of PARP (bottom panels) was determined. (A) Lung cancer cell line A549. (B) Primary human hepatocytes from normal donor.
Therefore, to assess a potential utility of C12 for anti-cancer therapy, we compared the effects of these two compounds—(C12) and bartezomid (Bor)—on TRAIL-mediated apoptosis in cancerous A549 cells and primary human hepatocytes.
Cancer and normal cell culture. Lung cancer cell line A549 and colon cancer cell line HT29 were purchased from ATCC. Breast cancer cell line MDA-MB-468 was received from J. C. Reed (The Burnham Institute, La Jolla, Calif.). Cell lines were maintained in growth medium (GM): DMEM medium (4.5 g/l glucose) supplemented with 10% FBS (HyClone, Logan, Utah), L-glutamine, penicillin/streptomycin and nonessential ammo acids (Invitrogen, Carlsbad, Calif.). Normal human bronchial epithelial (NHBE) cells and normal human mammary epithelial (NHME) cells were obtained from Cambrex (East Rutherford, N.J.) and cultured as recommended by the manufacturer. Normal human colon smooth muscle cells were obtained from ScienCell Research Lab (San Diego, Calif.) and cultured as recommended by the manufacturer. Primary cultures of human hepatocytes (freshly plated; not cryopreserved) and culture medium were obtained from Celsis In Vitro Technologies (Baltimore, Md.). Upon receipt of the cells, the medium was gently aspirated from each well and replenished with InVitroGRO HI medium supplemented with Torpedo Antibiotic Mix (Celsis), and the plates were kept in a 5% CO2, at 37° C. in an incubator at saturating humidity. After 2-4 h, cells were stimulated as described in the text and FIG. legends.
Cytotoxicity was determined by using the XTT-based toxicology assay kit (Sigma, St. Louis, Miss.) in accordance with the manufacturer's instructions. For some experiments, to confirm the apoptotic nature of toxicity, cells were analyzed using protocols and instructions of the Annexin V-FITC apoptosis detection kit (Biovision, Mountain View, Calif.). In addition, caspase 3, 8 and 9 activities were determined by colorimetric assays (R&D System), and the data are expressed as fold increases compared to the values of untreated or control-treated cells (n=5).

sXBP1 (UPR) = assay: sXBP1 generation in mouse lung after administration; assay type: in vivo; details: administration into mouse lung, FIG. 1F
Text: FIG. 1: C12 induces the UPR in mammalian cells. (A and B). Comparison of the macrophage responsiveness to P. aeruginosa (P.a.), S. typhimurium (S.t), and S. aureus (S.a.). RT-PCR assay of XBP1 (A) and Western blot analysis (B) of p38, its phosphorylated form (p-p38) as well as phosphorylated forms of PERK (p-PERK) and eIF2α (p-eIF2α) in cell extracts after treatment with bacteria are shown. (C) Macrophages were stimulated with P. aeruginosa wild type (wt) or lasI mutant (ΔlasI), and cell extracts (total RNA or total protein) were prepared and analyzed as in (A and B). (D and E) RT-PCR assay of XBP1 or actin in total RNA prepared from macrophages after treatment with compound (C12), i.e., the (S)-enantiomer, or with the (R)-enantiomer (C12R), or the hydrolysis product (C12h) are shown. (F) Total RNA was prepared from lung of mice after inoculation of vehicle (-) or (C12) and analyzed in (D). (G) Chemical structures of compounds (C12), (C12R) and (C12h). Compound (C12) is the (S)-enaniiomer of the compound of formula: […]
Importantly, the similar requirements in the structural integrity of the lactone ring motif were also evident in response to other natural stereoisomer of the AHL family (Table 1). […]

HeLa cell line = assay: PARP cleavage in HeLa cells; assay type: cell-based, human; details: FIG. 3C
Description: (§1) FIG. 3: Sensitivity of cancerous and non-cancerous cells to apoptosis induced by TNF, C12 or a combination of C12 and TNF. Cells were incubated with TNF, (C12) or a combination of TNF and (C12) as indicated, and the cleavage of PARP (an apoptotic marker) was determined by Western blot. (A and B) Breast cancer MCF-7 cells transfected with control vector (Vector) and vector expressing Bcl-2 or CLARP. (C) HeLa cell line. (D) Normal human bronchial epithelial cells (NHBE).
(§2) Similar experiments were conducted by using normal human bronchial epithelial cells and HeLa cell line as an example of transformed cells. We observed that both HeLa and normal cells were resistant to pro-apoptotic effects of TNF (FIG. 3C and 3D). […] In addition, two stimuli—C12 and TNF—work synergistically against cancerous cells, although normal cells stay intact.
Antibodies and Western blot analysis. Anti-eIF2α, phospho-eIF2α[…](p-eIF2α), p38, p-p38 (Thr180/Tyr132), p-RelA (Ser536), p-I κB ? 32/36), PARP 20 antibodies were purchased from Cell Signaling; anti-RelA, I κB α, IκBβ were from Santa Cruz Biotechnology. Cellular extracts were prepared and analyzed by Western blot assay as previously described.^E3

[2] = tested on: normal human bronchial epithelial cells (NHBE); assay: PARP cleavage in normal human bronchial epithelial cells; assay type: cell-based; details: FIG. 3D
Description: as §1, §2
Cancer and normal cell culture. Lung cancer cell line A549 and colon cancer cell line HT29 were purchased from ATCC. Breast cancer cell line MDA-MB-468 was received from J. C. Reed (The Burnham Institute, La Jolla, Calif.). […]
Antibodies and Western blot analysis. […] Cellular extracts were prepared and analyzed by Western blot assay as previously described.^E3

## CCCCCCCCCC(=O)CC(=O)N[C@H]1CCOC1=O [Compound 1, N-(3-oxo-dodecanoyl) homoserine lactone]
[1]
  toxicity to human hepatocytes, compound alone or in combination with TRAIL: practically healthy and intact
sXBP1 (UPR)
  generation of sXBP1 in lung: resulted in the generation of sXBP1
HeLa cell line
  cleavage of PARP, compound alone: induced the cleavage of PARP
[2]
  apoptosis (PARP cleavage), compound alone and in combination with TNF: showed resistance
